Experiment [1] can be described thus: TRAP assay (quenching of ABTS+ radical cation). The class given is biochemical. The settings on record: 10 μmol compound, 5 min, absorbance 734 nm; Troxol reference. On the procedure: The anti-oxidant activities of PB 141 were determined by the ability of this compound to react with pre-formed radical monocation of 2,2′-azinobis-(3-ethylbenzothiazoline)-6-sulfonic acid (ABTS^+). Data are representative of one of two independent experiments; n=3; *** P<0.001 versus Troxol.
The anti-oxidant activity of PB141 or PB157 was determined by the ability of these compounds to react with the pre-formed radical monocation of 2,2′-azinobis-(3-ethylbenzothiazoline)-6-sulfonic acid (ABTS^+). ABTS (1.8 mmol) was reacted overnight with potassium persulfate (0.63 mmol) in double distilled water, at room temperature in the dark, to generate the dark blue ABTS^+ radical cation. This radical cation has a maximum absorption at 734 nm. Immediately prior to the experiment, ABTS^+ was diluted with absolute ethanol to an absorbance of approximately 0.7 at 734 nm. PB141 or PB157 (10 μmol) was added to ABTS^+ (1 ml) and mixed by vortexing. The reaction was allowed to stabilize for 5 min and the absorbance was measured. The anti-oxidant activities of these compounds were determined by their ability to quench the color of the radical cation. Troxol (10 μmol) was used as reference standard.

Experiment [2] concerns bronchial epithelial cells, THP cells, and alveolar macrophages. As to the kind of experiment: Cigarette smoke extract exposure of cultured cells. The class given is cell-based, humans and mice. To be noted: pretreated 1 to 5 μM, then 10% cigarette smoke extract. On the procedure:
For further in vitro studies, bronchial epithelial cells, THP cells (obtained from American Type Culture Collection), and alveolar macrophages (isolated from bronchial lavage fluid of humans and mice) were cultured and exposed to 10% cigarette smoke extract (CSE) prepared by smoking two cigarettes into RPMI medium according to the Federal Trade Commission (FTC) protocol. In some experiments cells were pretreated with 1 to 5 μM PB141 before the cigarette smoke extract treatment. Pretreatment with PB141 decreased epithelial cell permeability, inflammatory chemokine and cytokine production, and ROS generation.

In the next experiment the test system is PMNs. As to the kind of experiment: PMN adhesion and transendothelial migration, cells of endotoxin-treated mice. Type of experiment: in vivo. To be noted: PMNs from peripheral blood of endotoxin-treated mice. On the procedure:
For additional in vitro studies, after the treatment described above alveolar macrophages were isolated from the BAL fluid and plated in DMEM+10% FBS. After 1 h, RNA was isolated and expression of the different genes was determined using real-time PCR; results were normalized to values for the housekeeping genes glyceraldehyde-3-phosphate dehydrogenase (GAPDH) and […]. […] In other experiments, PMNs were isolated from peripheral blood of endotoxin-treated mice by hetastarch exchange transfusion. PMN adhesion was assessed with the Cytoselect Leukocyte-Endothelium Adhesion Assay kit (CBA-210; Cell Biolabs) and transendothelial PMN migration was determined with the Cytoselect Leukocyte Transmigration Assay kit (CBA-212; Cell Biolabs).

For experiment [3], the system named is OVA allergen-induced asthma in mice. Nature of the experiment: Ovalbumin-induced asthma model. The class given is in vivo. To be noted: 25 mg/kg nebulized 30 min after each OVA challenge. On the procedure: Allergen-induced asthma was produced in mice by initial sensitization by intraperitoneal (i.p.) injection of OVA on days 0 and 7 and challenge by intratracheal injection of OVA on even-numbered days 14 through 22. Thirty minutes following each OVA challenge, PB141 (25 mg/kg) or vehicle (saline) was nebulized and delivered to cage air via a micropump nebulizer. Twenty-four hours after the last challenge and nebulization; airway hyperresponsiveness to increasing concentrations of inhaled methacholine was determined by the forced oscillation (flexiVent) method. (A) Airway resistance. (B) Airway elastance. Data are representative of one of two independent experiments with n=6-8 mice per group.
Allergen induced asthma was produced in mice by initial sensitization by intraperitoneal (i.p.) injection of OVA on days 0 and 7 and challenge by intratracheal injection of OVA on even-numbered days 14 through 22. Thirty minutes after each OVA challenge, PB141 (25 mg/kg) or vehicle (saline) was nebulized and delivered to cage air via a micropump nebulizer. Twenty-four hours following the last challenge and nebulization, BAL fluid, plasma, and lung samples were obtained. (A) Total and differential cell count in BAL fluid. (B) Microscopic examination following staining of BAL fluid. (C) H2O2 production, (D) Protein concentration in BAL fluid. Data are representative of one of two independent experiments with n=7-10 mice per group; *** p<0.001.
Allergen-induced asthma was produced in mice by initial sensitization by intraperitoneal (i.p.) injection of OVA on days 0 and 7 and challenge by intracheal injection of OVA on even-numbered days 14 through 22. Thirty minutes after each OVA challenge, PB141 (25 mg/kg) or vehicle (saline) was nebulized and delivered to cage air via a micropump nebulizer. Twenty-four hours following the last challenge and nebulization lung samples were obtained. The lung was examined histologically following (A) H&E staining, (B) trichrome staining, and (C) periodic acid Schiffs (PAS) staining. Data are representative of one of two independent experiments with n=7-10 mice per group.
Allergen induced asthma was produced in mice by initial sensitization by intraperitoneal injection of OVA on days 0 and 7 and challenge by intratracheal injection of OVA on even-numbered days 14 through 22. […] Twenty-four hours following the last challenge and nebulization. airway hyperresponsiveness to methacholine challenge was measured noninvasively by whole body plethysmography (WBP; Buxco Research Systems, Wilmington, N.C.) and, invasively by computer-controlled ventilator (flexiVent; SCIREQ Inc., Montreal, Canada). Cellular Infiltration into the airspace was assessed by measuring myeloperoxidase activity in the lung and the number of polymorphonuclear neutrophils and eosinophils in bronchoalveolar lavage fluid (BALF). Lung inflammation was assessed by vascular permeability, edema, and cytokine generation. Anti-OVA IgE concentrations in the serum were measured using an ELISA kit (MD Bioproducts, St. Paul, Minn.). Lung histology sections were assessed by morphometry, with May-Grünwald-Giemsa or Periodic acid-Schiff (PAS) staining used for detection of mucopolysaccharide accumulation, Sirius Red or Masson's trichrome staining for detection of collagen deposition, and hematoxylin and eosin (H&E) staining for assessment of inflammation. Lung collagen content was determined by quantifying soluble collagen with the Sircol Collagen Assay Kit (Biocolor).

`CC(=O)N[C@@H](CSC(CC(=O)CC(SC[C@H](NC(C)=O)C(=O)O)c1cnccn1)c1cnccn1)C(=O)O` (some centres unmarked) [PB141]: the “Anti-oxidant activity (ability to quench ABTS+ radical cation)” value in experiment [1] is listed as “clearly demonstrated”. Moreover, in experiment [2], the “Inflammatory chemokine and cytokine production” value is “decreased”; the “Phagocytic ability of mouse and human alveolar macrophages” value was “improved”; the ROS generation result was “decreased”. Moreover, in the experiment on PMNs, the PMN adhesion result was “decreased” and the “Transendothelial PMN migration” value is on record as “decreased”. Besides, in experiment [3], the “Airway hyperresponsiveness to methacholine” value is on record as “significantly suppressed”; the Airway remodeling result was “lessening”; the “Expression of cytokines, chemokines, and IgE in BALF and serum” value was “attenuated”; the “Infiltration of inflammatory cells into the airspace and lung” value is “suppressed”. For the same compound, the Mucus accumulation result in experiment [3] is reported as “lessening”.
